Source: article PMC9197883, “Treatment with Polyethylene Glycol–Conjugated Fungal D-Amino Acid Oxidase Reduces Lung Inflammation in a Mouse Model of Chronic Granulomatous Disease” (Inflammation, 2022)

Tests used:
[1] = system: T1, fDAO / PEG-fDAO; assay: HRP-coupled o-dianisidine assay of H2O2 formation, nonlinear fit; format: biochemical; settings: pH 6.5; 25 °C; enzyme form not stated beside the value, most likely PEG-conjugated (PEG-fDAO)
T1 construct: gene DAO; DAO from Fusarium spp. supplied by Ikeda Food Research; tetramer 165 kDa; PEG conjugate (five PEG chains, succinimide-PEG ME-020CS) 206 kDa

[2] = target: D-amino acid oxidase isolated from Fusarium spp. (Fusarium spp.) (UniProt P24552); assay: not stated; fDAO in 'the physiological solution used for testing'; how the oligomeric state was found is not told

| Compound | Km [1] | stoichiometry N [2] |
| --- | --- | --- |
| N[C@H](Cc1ccccc1)C(=O)O [D-phenylalanine] | 220 µM |  |
| D-amino acid oxidase isolated from Fusarium spp. (from UniProt P24552 23-361) (enzyme) |  | 4 |
